From ChEMBL document CHEMBL3817834, “Scaffold morphing leading to evolution of 2,4-diaminoquinolines and aminopyrazolopyrimidines as inhibitors of the ATP synthesis pathway” (Medchemcomm, 2016)
Converted amounts (≈) assume the structure as drawn. The source made the active and inactive calls. The calls are words filed in the database; no cut-off is given here.

Assays:
[1] = tested on: Mycobacterium tuberculosis; test: Antimycobacterial activity against drug sensitive Mycobacterium tuberculosis isolate 25618 by turbidometric method; assay type: functional
[2] = tested on: Mycobacterium tuberculosis; test: Antimycobacterial activity against drug sensitive Mycobacterium tuberculosis Beijing (E-47/94) by turbidometric method; assay type: functional
[3] = tested on: Mycobacterium tuberculosis; test: Antimycobacterial activity against drug sensitive Mycobacterium tuberculosis Harlingen by turbidometric method; assay type: functional
[4] = tested on: Mycobacterium tuberculosis; test: Antimycobacterial activity against Mycobacterium tuberculosis H37Rv infected in Balb/c mouse assessed as log reduction in CFU in lungs at 10 mg/kg, po qd dosed 6 days per week for 2 weeks; assay type: functional
[5] = tested on: Mycobacterium tuberculosis; test: Antimycobacterial activity against drug sensitive Mycobacterium tuberculosis ATCC 27294 by turbidometric method; assay type: functional
[6] = tested on: Mycobacterium tuberculosis; test: Antimycobacterial activity against drug sensitive Mycobacterium tuberculosis Erdman by turbidometric method; assay type: functional; conditions: Erdman = ATCC 35801
[7] = Selectivity index, ratio of IC50 for bovine heart mitochondrial ATP synthase to IC50 for ATP synthase in Mycobacterium smegmatis inverted membrane vesicles
[8] = Inhibition of ATP synthase in Mycobacterium smegmatis inverted membrane vesicles assessed as reduction in oxidative phosphorylation of ADP incubated for 60 mins in presence of NADH by luciferin/luciferase coupled […] assay; parameters: species or system Mycolicibacterium smegmatis
[9] = tested on: Mycobacterium tuberculosis; test: Bactericidal activity against Mycobacterium tuberculosis under hypoxic condition after 7 days by microdilution method; assay type: functional; conditions: 168 h
[10] = tested on: Mycobacterium tuberculosis; test: Ratio of MBC for Mycobacterium tuberculosis under hypoxic condition to MIC for Mycobacterium tuberculosis under aerobic condition; assay type: functional
[11] = tested on: Mycobacterium tuberculosis; test: Antimycobacterial activity against Mycobacterium tuberculosis under aerobic condition after 7 days by microdilution method; assay type: functional; conditions: 168 h
[12] = tested on: Mycobacterium tuberculosis; test: Bactericidal activity against Mycobacterium tuberculosis under aerobic condition after 7 days by microdilution method; assay type: functional; conditions: 168 h
[13] = Inhibition of bovine heart mitochondrial ATP synthase assessed as reduction in oxidative phosphorylation of ADP in presence of NADH by ATP bioluminescence assay; parameters: species or system Bos taurus
[14] = Ratio of IC50 for ATP synthase in Mycobacterium smegmatis inverted membrane vesicles to IC50 for Mycobacterium bovis BCG
[15] = tested on: Mycobacterium tuberculosis; test: Antimycobacterial activity against Mycobacterium tuberculosis H37Rv infected in Balb/c mouse assessed as reduction in CFU in lungs at 100 to 200 mg/kg, po qd dosed 6 days per week for 2 weeks; assay type: functional, organism-based
Mus musculus = test: T>MIC in Mycobacterium tuberculosis H37Rv infected Balb/c mouse at 100 to 200 mg/kg, po qd dosed 6 days per week for 2 weeks by LC-MS analysis
[16] = tested on: Mycobacterium tuberculosis; test: Bactericidal activity against Mycobacterium tuberculosis under replicating condition assessed as reduction in colony forming units at 3.125 to 200 uM by time kill kinetic study; assay type: functional, organism-based; conditions: TDE = time-dependent effect

NNC(=O)c1ccncc1 [ISONIAZID]
MIC80 [1]: 0.2 µM (≈ 0.0274 µg/mL)
MIC80 [2]: 0.2 µM (≈ 0.0274 µg/mL)
MIC80 [3]: 0.2 µM (≈ 0.0274 µg/mL)
Activity [4]: >2 deltalog10CFU
MIC80 [5]: 0.2 µM (≈ 0.0274 µg/mL)
MIC80 [6]: 0.2 µM (≈ 0.0274 µg/mL)

COc1cc2nc(NCCC3CCOCC3)nc(Nc3cnc(OC)c(C)c3)c2cc1OC
Ratio IC50 [7]: 10
IC50 [8]: 400 nM
MBC [9]: 13 µM (≈ 5.9 µg/mL)
Ratio [10]: 15
MIC [11]: 3.1 µM (≈ 1.41 µg/mL)
MBC [12]: 25 µM (≈ 11.3 µg/mL)

COc1cc2nc(NCCC3CCOCC3)nc(Nc3cnc(OCCN(C)C)c(F)c3)c2cc1OC
Ratio IC50 [7]: > 28
IC50 [8]: 900 nM
IC50 [13]: > 25000 nM
MIC [11]: 25 µM (≈ 12.9 µg/mL)

CN(C)CCOc1ncc(Nc2cc(N3CCC(c4ccccc4Cl)C3)nc3cc(F)c(F)cc23)cc1F (stereo not given)
Ratio IC50 [7]: 19
MIC80 [1]: 3.1 µM (≈ 1.68 µg/mL)
IC50 [8]: 100 nM
MIC80 [2]: 3.1 µM (≈ 1.68 µg/mL)
MIC80 [3]: 3.1 µM (≈ 1.68 µg/mL)
MBC [9]: 50 µM (≈ 27.1 µg/mL)
Ratio [10]: 15
MIC [11]: 3.1 µM (≈ 1.68 µg/mL)
Ratio IC50 [14]: 100
MIC80 [5]: 3.1 µM (≈ 1.68 µg/mL)
MBC [12]: 38 µM (≈ 20.6 µg/mL)
Activity [15]: Active
MIC80 [6]: 3.1 µM (≈ 1.68 µg/mL)

COc1cc2nc(NCCC3CCOCC3)cc(Nc3cnc(OCCN(C)C)c(F)c3)c2cc1OC
Ratio IC50 [7]: 1
IC50 [8]: 3700 nM
MIC [11]: 200 µM (≈ 103 µg/mL)

Cn1nc(Nc2nc(NCCC3CCOCC3)nc3ccccc23)cc1C(C)(C)C
Ratio IC50 [7]: 4.5
IC50 [8]: 1700 nM
MIC [11]: 6.2 µM (≈ 2.53 µg/mL)

CC1COc2c(N3CCN(C)CC3)c(F)cc3c(=O)c(C(=O)O)cn1c23 (stereo not given) [OFLOXACIN]
MIC80 [1]: 0.7 µM (≈ 0.253 µg/mL)
MIC80 [2]: 0.7 µM (≈ 0.253 µg/mL)
MIC80 [3]: 0.7 µM (≈ 0.253 µg/mL)
MIC80 [5]: 0.7 µM (≈ 0.253 µg/mL)
MIC80 [6]: 0.7 µM (≈ 0.253 µg/mL)

CC(Nc1nc(N2CCCCC2)nc2ccccc12)c1ccccc1 (stereo not given)
Ratio IC50 [7]: 2.6
IC50 [8]: 2100 nM
IC50 [13]: 2600 nM
MIC [11]: 25 µM (≈ 8.31 µg/mL)

COc1cc2nc(N3CCC(c4ccccc4Cl)C3)cc(Nc3cnc(NCCN(C)C)c(F)c3)c2cc1OC (stereo not given)
Ratio IC50 [7]: 51
IC50 [8]: 100 nM
MIC [11]: 1.6 µM (≈ 0.904 µg/mL)

CO[C@H]1/C=C/O[C@@]2(C)Oc3c(C)c(O)c4c(O)c(c(/C=N/N5CCN(C)CC5)c(O)c4c3C2=O)NC(=O)/C(C)=C\C=C\[C@H](C)[C@H](O)[C@@H](C)[C@@H](O)[C@@H](C)[C@H](OC(C)=O)[C@@H]1C [RIFAMPIN]
MIC80 [1]: 0.04 µM (≈ 0.0329 µg/mL)
MIC80 [2]: 0.04 µM (≈ 0.0329 µg/mL)
MIC80 [3]: 0.04 µM (≈ 0.0329 µg/mL)
MIC80 [5]: 0.04 µM (≈ 0.0329 µg/mL)
MIC80 [6]: 0.04 µM (≈ 0.0329 µg/mL)

COc1cc2nc(N3CCC(c4ccccc4Cl)C3)cc(Nc3cnc(OCCN(C)C)c(F)c3)c2cc1OC (stereo not given)
Ratio IC50 [7]: 128
MIC80 [1]: 3.1 µM (≈ 1.75 µg/mL)
IC50 [8]: 40 nM
MIC80 [2]: 3.1 µM (≈ 1.75 µg/mL)
MIC80 [3]: 3.1 µM (≈ 1.75 µg/mL)
MBC [9]: 200 µM (≈ 113 µg/mL)
MIC [11]: 1.6 µM (≈ 0.906 µg/mL)
Ratio IC50 [14]: 100
MIC80 [5]: 6.3 µM (≈ 3.57 µg/mL)
MBC [12]: 54 µM (≈ 30.6 µg/mL)
MIC80 [6]: 3.1 µM (≈ 1.75 µg/mL)

CC[C@@H](CO)NCCN[C@@H](CC)CO [ETHAMBUTOL]
MIC80 [1]: 9.8 µM (≈ 2 µg/mL)
MIC80 [2]: 9.8 µM (≈ 2 µg/mL)
MIC80 [3]: 9.8 µM (≈ 2 µg/mL)
MIC80 [5]: 9.8 µM (≈ 2 µg/mL)
MIC80 [6]: 9.8 µM (≈ 2 µg/mL)

COc1cc2nc(NCCC3CCOCC3)nc(Nc3ncc(C(C)C)s3)c2cc1OC
IC50 [8]: 100 nM
MBC [9]: 50 µM (≈ 22.9 µg/mL)
Ratio [10]: 15
MIC [11]: 6.2 µM (≈ 2.84 µg/mL)
MBC [12]: 25 µM (≈ 11.4 µg/mL)

COc1cc2nc(NCCc3ccccc3Cl)cc(Nc3cnc(OCCN(C)C)c(F)c3)c2cc1OC
Ratio IC50 [7]: 79
IC50 [8]: 60 nM
MIC [11]: 3.1 µM (≈ 1.67 µg/mL)

COc1cc2nc(NCCC3CCOCC3)nc(Nc3cc(C(C)(C)C)n(C)n3)c2cc1OC
Ratio IC50 [7]: 52
IC50 [8]: 100 nM
MBC [9]: 50 µM (≈ 23.4 µg/mL)
Ratio [10]: 15
MIC [11]: 6.2 µM (≈ 2.91 µg/mL)
Ratio IC50 [14]: 100
MBC [12]: 25 µM (≈ 11.7 µg/mL)

CN(C)CCOc1ncc(Nc2cc(C(F)(F)F)nc3cc(-c4ccc(F)cc4)nn23)cc1F
Ratio IC50 [7]: 19
IC50 [8]: 500 nM
MIC [11]: 12.5 µM (≈ 5.98 µg/mL)
Ratio IC50 [14]: 100

COc1cc2nc(N3CCC(c4ccccc4Cl)C3)cc(Nc3cnc(OCC4CCCN4C)c(F)c3)c2cc1OC (stereo not given)
Ratio IC50 [7]: 44
IC50 [8]: 60 nM
MBC [9]: 50 µM (≈ 29.6 µg/mL)
Ratio [10]: 15
MIC [11]: 6.2 µM (≈ 3.67 µg/mL)
MBC [12]: 50 µM (≈ 29.6 µg/mL)

CN(C)CCOc1ncc(Nc2cc(-c3ccccc3)nc3cc(-c4ccc(F)cc4)nn23)cc1F
T>MIC (Mus musculus): 24 h
Ratio IC50 [7]: 20
MIC80 [1]: 6.3 µM (≈ 3.07 µg/mL)
IC50 [8]: 450 nM
MIC80 [2]: 6.3 µM (≈ 3.07 µg/mL)
Activity [16]: tde
MIC80 [3]: 6.3 µM (≈ 3.07 µg/mL)
MBC [9]: 100 µM (≈ 48.7 µg/mL)
Ratio [10]: 15
MIC [11]: 6.2 µM (≈ 3.02 µg/mL)
Ratio IC50 [14]: 100
MIC80 [5]: 6.3 µM (≈ 3.07 µg/mL)
MBC [12]: 28 µM (≈ 13.6 µg/mL)
Activity [15]: Active
MIC80 [6]: 6.3 µM (≈ 3.07 µg/mL)

CCOc1ncc(Nc2nc(OCCC3CCOCC3)nc3cc(OC)c(OC)cc23)cc1F
IC50 [8]: 25000 nM
MIC [11]: > 200 µM

CCOc1ncc(Nc2cc(NCCC3CCOCC3)nc3ccnn23)cc1F
Ratio IC50 [7]: > 1.2
IC50 [8]: 21000 nM
MIC [11]: > 50 µM

CN(C)CCOc1ncc(Nc2cc(-c3ccccc3)nc3cc(-c4ccc(F)cc4)[nH]c23)cc1F
Ratio IC50 [7]: 13
MIC80 [1]: 3.1 µM (≈ 1.51 µg/mL)
IC50 [8]: 100 nM
MIC80 [2]: 3.1 µM (≈ 1.51 µg/mL)
MIC80 [3]: 3.1 µM (≈ 1.51 µg/mL)
MIC [11]: 0.8 µM (≈ 0.388 µg/mL)
Ratio IC50 [14]: 100
MIC80 [5]: 3.1 µM (≈ 1.51 µg/mL)
MIC80 [6]: 3.1 µM (≈ 1.51 µg/mL)

COc1cc2nc(NCCc3cccnc3)nc(Nc3cnc(OC)c(C)c3)c2cc1OC
Ratio IC50 [7]: 96
IC50 [8]: 100 nM
MIC [11]: > 200 µM

N#CC(C#N)=NNc1cccc(Cl)c1 [CARBONYL CYANIDE M-CHLOROPHENYLHYDRAZONE]
IC50 [8]: 4800 nM

CCOc1ncc(Nc2cc(NCCC3CCOCC3)nc3cc(OC)c(OC)cc23)cc1F
Ratio IC50 [7]: 3.2
IC50 [8]: 800 nM
MIC [11]: 6.2 µM (≈ 2.92 µg/mL)
Ratio IC50 [14]: 100

CN[C@@H]1[C@H](O[C@H]2[C@H](O[C@H]3[C@H](O)[C@@H](O)[C@H](N=C(N)N)[C@@H](O)[C@@H]3N=C(N)N)O[C@@H](C)[C@]2(O)C=O)O[C@@H](CO)[C@H](O)[C@H]1O [STREPTOMYCIN]
MIC80 [1]: 0.3 µM (≈ 0.174 µg/mL)
MIC80 [2]: 0.3 µM (≈ 0.174 µg/mL)
MIC80 [3]: 0.3 µM (≈ 0.174 µg/mL)
MIC80 [5]: 0.3 µM (≈ 0.174 µg/mL)
MIC80 [6]: 0.3 µM (≈ 0.174 µg/mL)

CC(Nc1nc(N2CCCC2)nc2ccccc12)c1ccccc1 (stereo not given)
Ratio IC50 [7]: < 0.04
IC50 [8]: 2500 nM
MIC [11]: 50 µM (≈ 15.9 µg/mL)

COc1nc2ccc(Br)cc2cc1[C@@H](c1ccccc1)[C@@](O)(CCN(C)C)c1cccc2ccccc12 [BEDAQUILINE]
MIC80 [1]: < 2 µM
IC50 [8]: 5 nM
MIC80 [2]: < 2 µM
MIC80 [3]: < 2 µM
MBC [9]: 4 µM (≈ 2.22 µg/mL)
Ratio [10]: 15
MIC [11]: 0.2 µM (≈ 0.111 µg/mL)
Ratio IC50 [14]: 100
MIC80 [5]: 0.2 µM (≈ 0.111 µg/mL)
MBC [12]: 1.6 µM (≈ 0.889 µg/mL)
MIC80 [6]: < 2 µM

CCOc1ncc(Nc2nc(NCCC3CCOCC3)nc3cc(OC)c(OC)cc23)cc1F
Ratio IC50 [7]: 2.3
IC50 [8]: 600 nM
MBC [9]: 3 µM (≈ 1.41 µg/mL)
Ratio [10]: 15
MIC [11]: 1.9 µM (≈ 0.896 µg/mL)
MBC [12]: 19 µM (≈ 8.96 µg/mL)
